From US20240050526A1, “CATH2 DERIVATIVES FOR STIMULATING INNATE IMMUNE MEMORY” (priority 2020, published 2024)
Ends that are not written are not given here.

Key:
Assay type in all cases: cell-based, human
dTHP-1 cells [1] = assay: DCATH-2 training of dTHP-1 cells in the presence of pathway inhibitors; settings: 1 μg/ml Pam3CSK4; for effect of inhibitor on DCATH-2 training (amplified Pam3CSK4-induced TNFα production): inhibitor 1 h before and during priming with 5 μM DCATH-2, 3 days rest; for Pam3CSK-induced TNFα production in the presence of inhibitor: reference level of FIG. 4a, means, SEM, 3 experiments
Description: (§1) THP-1 cells were cultured in Iscove Modified Dulbecco Media (IMDM, Gibco) containing Glutamax-I, sodium pyruvate, 10% fetal calf serum at 37° C. and 5% CO2. For differentiation to macrophage-like cells, THP-1 cells were grown in IMDM/FCS medium containing 8 of 100 nM PMA and seeded in 96 wells (5×10^4 cells/well), 24 wells (3×10^5 cells/well) or 6 wells plates (1×10^6 cells/well) during 48 h. Subsequently, dTHP-1 were washed with pre-warmed IMDM/FCS, left overnight to rest and primed during 1 to 24 h with 2-10 μM peptides of fresh IMDM/FCS medium, washed 3 times in medium. After 3 days rest cells were stimulated with various stimuli: S. minnesota LPS (10 ng/ml), E. coli LPS (10 or 50 ng/ml), Pam3CSK4 (1 μg/ml) or Pam2CSK4 (1 μg/ml). After 24 h supernatants were collected and stored at −20° C. For inhibition, dTHP-1 cells were pre-incubated for 1 h before priming and during priming with rapamycin (10 nM), AICAR (50 nM), metformin (0.3 mM), wortmannin (1 μM), ascorbate (50 μM), SB203580 (10 μM), PD98059 (10 μM), SP600125 (10 μM), EGCG (40 μM), anacardic acid (50 μM), curcumin (10 μM), garcinol (10 μM), Bay-11-7085 (10 μM), MTA (1 mM), MM-102 (25 μM), suramin (50 μM), KN-62 (3 μM), nystatin (10 μg/ml), and chlorpromazine (10 μM).
(§2) TNFα, IL-6, CXCL10 and CCL5 production were measured using ELISA (R&D systems) following instructions of the manufacturer.

dTHP-1 cells [2] = assay: Confocal imaging of Tamra-labelled DCATH-2 uptake by dTHP-1 cells; settings: 1 h pre-incubation with inhibitor, 3 h priming with Tamra-DCATH-2
Description: 3×10^5 dTHP-1 cells were seeded on 8 mm coverslips in 24 wells plates and differentiated for 48 h with 100 nM PMA in 0.5 ml medium. Wells were washed 3 times, and cells were primed for 3 h with Tamra-labelled DCATH-2 (TD) or medium. For inhibition conditions, cells were pre-incubated before priming for 1 h with 3 μM KN-62, 50 μM suramin, 10 μM chlorpromazine, or 10 μg/ml nystatin. After priming, coverslips were washed 3 times with warm medium and fixated for 30 min in 4% paraformaldehyde solution (0.1 M phosphate buffer, pH 7.4). After staining of nuclei with Hoechst (Molecular probes) for 10 min, coverslips were mounted on glass slides using ProLong glass antifade mountant (Thermofisher, P36980). Confocal images were acquired on a Leica SPE-II using the 100×HCX PLAN APO (NA=1.4-0.7) objective. Imaging was performed using a quadruple band beam splitter for the 561 nm laser. Visualization of Hoechst stained dTHP-1 cells was done with a 405 nm (100 mW) Coherent Violet Cube laser. Image analysis was done using composite images of both channels. In brief, regions of interest were set manually using DIC for segmentation. To isolate puncta from background noise, a threshold was set for the Tamra channel and intensity and area of puncta were measured partially automated using a script.

dTHP-1 cells [3] = assay: Innate immune training of dTHP-1 cells by cathelicidin peptides, cytokine ELISA after TLR agonist re-stimulation; settings: priming 24 h with 10 μM peptide; 100 nM PMA dTHP-1 cells; 3 days rest; re-stimulated with 10 ng/ml Salmonella minnesota LPS
Description: as §1, §2
Extrapolating from the trained immunity experiments with human monocytes, we examined if mature cathelicidin peptides could induce trained immunity in TH P-1 cells, a human monocyte cell line. TH P-1 cells were differentiated with 100 nM or 8 nM phorbol 12-myristate 13-acetate (PMA) during 48 h washed 3 times and, after overnight rest, primed with 2-10 μM of chicken cathelicidin 2 (CATH-2), its full D-analog DCATH-2 or human cathelicidin LL-37 for 24 h. Subsequently, dTHP-1 cells were washed 3 times and re-stimulated after a 3-day rest period with TLR agonists (24 h) (FIG. 1a). […] Priming with 5 μM of its full-D-amino acid analog DCATH-2 amplified 2- to 3-fold the TNFα and IL-6 production in response to LPS stimulation. A minor response was found for priming with 10 μM LL-37, which amplified IL-6 production 1.4-fold in 100 nM differentiated cells.

| Molecule | effect of inhibitor on DCATH-2 training (amplified Pam3CSK4-induced TNFα production) (dTHP-1 cells [1]) | also measured |
| --- | --- | --- |
| NC(=O)c1ncn([C@@H]2O[C@H](COP(=O)(O)O)[C@@H](O)[C@H]2O)c1N [AICAR, 5-aminoimidazole-4-carboxamide ribonucleotide] | did not result in a significant reduction | Pam3CSK-induced TNFα production in the presence of inhibitor (dTHP-1 cells [1]): 335 ± 89 pg/mL |
| CC(C)(C)c1ccc(S(=O)(=O)/C=C/C#N)cc1 [Bay-11-7085] | did not impair | – |
| O=C(O[C@@H]1Cc2c(O)cc(O)cc2O[C@@H]1c1cc(O)c(O)c(O)c1)c1cc(O)c(O)c(O)c1 [EGCG, epigallocatechin gallate] | abrogated | – |
| CN([C@@H](Cc1ccc(OS(=O)(=O)c2cccc3cnccc23)cc1)C(=O)N1CCN(c2ccccc2)CC1)S(=O)(=O)c1cccc2cnccc12 [KN-62] | partially inhibited | effect of inhibitor on uptake of TAMRA-labelled DCATH-2 by dTHP-1 cells (dTHP-1 cells [2]): reduced uptake |
| CCC(CC)(NC(=O)C(C)C)C(=O)N[C@@H](CCCN=C(N)N)C(=O)NC1(C(=O)NC(c2ccc(F)cc2)c2ccc(F)cc2)CCCC1 [MM-102] | not affected | – |
| COc1cccc(-c2cc(=O)c3ccccc3o2)c1N [PD58059] | no effect | – |
| C[S+]([O-])c1ccc(-c2nc(-c3ccncc3)c(-c3ccc(F)cc3)[nH]2)cc1 (stereo not shown) [SB203580] | completely blocked | – |
| Oc1c2ccccc2c2c3c(cccc13)N=N2 [SP600125] | no effect | – |
| CCCCCCCCCCCCCCCc1cccc(O)c1C(=O)O [anacardic acid] | abrogated | – |
| O=C1O[C@H]([C@@H](O)CO)C(O)=C1O [ascorbate] | – | Pam3CSK-induced TNFα production in the presence of inhibitor (dTHP-1 cells [1]): 421 ± 112 pg/mL |
| CN(C)CCCN1c2ccccc2Sc2ccc(Cl)cc21 [chlorpromazin, chlorpromazine] | not affected | effect of inhibitor on uptake of TAMRA-labelled DCATH-2 by dTHP-1 cells (dTHP-1 cells [2]): not affected |
| COc1cc(/C=C/C(=O)CC(=O)/C=C/c2ccc(O)c(OC)c2)ccc1O [curcumin] | not by garcinol or curcumin | – |
| CN(C)C(=N)N=C(N)N [metformin] | did not result in a significant reduction | Pam3CSK-induced TNFα production in the presence of inhibitor (dTHP-1 cells [1]): 387 ± 99 pg/mL |
| C[C@@H]1[C@H](O)[C@@H](C)/C=C/C=C/CC/C=C/C=C/C=C/C=C/C(O[C@H]2O[C@H](C)[C@@H](O)[C@H](N)[C@@H]2O)CC2O[C@](O)(CC(O)C(O)CCC(O)CC(O)CC(O)CC(=O)O[C@H]1C)CC(O)C2C(=O)O (stereo partly shown) [nystatin] | strongly impaired | effect of inhibitor on uptake of TAMRA-labelled DCATH-2 by dTHP-1 cells (dTHP-1 cells [2]): reduced uptake |
| CO[C@H]1C[C@@H]2CC[C@@H](C)[C@@](O)(O2)C(=O)C(=O)N2CCCC[C@H]2C(=O)O[C@H]([C@H](C)C[C@@H]2CC[C@@H](O)[C@H](OC)C2)CC(=O)[C@H](C)/C=C(\C)[C@@H](O)[C@@H](OC)C(=O)[C@H](C)C[C@H](C)/C=C/C=C/C=C/1C [rapamycin] | – | Pam3CSK-induced TNFα production in the presence of inhibitor (dTHP-1 cells [1]): 318 ± 45 pg/mL |
| Cc1ccc(C(=O)Nc2ccc(S(=O)(=O)O)c3cc(S(=O)(=O)O)cc(S(=O)(=O)O)c23)cc1NC(=O)c1cccc(NC(=O)Nc2cccc(C(=O)Nc3cc(C(=O)Nc4ccc(S(=O)(=O)O)c5cc(S(=O)(=O)O)cc(S(=O)(=O)O)c45)ccc3C)c2)c1 [suramin] | completely impaired | effect of inhibitor on uptake of TAMRA-labelled DCATH-2 by dTHP-1 cells (dTHP-1 cells [2]): reduced uptake |
| COC[C@H]1OC(=O)c2coc3c2[C@@]1(C)C1=C(C3=O)[C@@H]2CCC(=O)[C@@]2(C)C[C@H]1OC(C)=O [wortmannin] | – | Pam3CSK-induced TNFα production in the presence of inhibitor (dTHP-1 cells [1]): 354 ± 135 pg/mL |
| LLGDFFRKSKEKIGKEFKRIVQRIKDFLRNLVPRTES [LL-37, human cathelicidin, reference compound] | – | amplification of IL-6 production (dTHP-1 cells [3]): 1.4 fold |
| RFGRFLRKIRRFRPKVTITIQGSARF-NH2 [CATH-2, chicken cathelicidin 2 peptide] | – | amplification of IL-6 production (dTHP-1 cells [3]): 1.8 fold |
